Laboratory results from patent US8802597B2, “Herbicidal pyrimidines” (E I du Pont de Nemours and Company, priority 2003, dated 2014).

Experiments:
Assay in all cases: Test E flooded paddy water application
Format in all cases: in vivo
[1] = test system: smallflower umbrella sedge (Cyperus difformis); conditions: Flood, 21 days, scale 0 to 100 (0 no effect, 100 complete control); for Plant response rating, Sedge, Umbrella: 16 g ai/ha
Outline: (§1)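 Response scored visually on a 0–100 scale (100 = complete control) at 21 days against untreated pots. Treatment was into paddy water 3 cm deep over silt loam, with plants at the 2.0–2.5-leaf stage, grown under 16-h light at 29.5/26.7 °C day/night.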

[2] = test system: purple redstem (Ammannia coccinea); conditions: Flood, 21 days, scale 0 to 100 (0 no effect, 100 complete control); for Plant response rating, Redstem: 16 g ai/ha
Outline: as §1

[3] = test system: junglerice (Echinochloa colona); conditions: Flood, 21 days, scale 0 to 100 (0 no effect, 100 complete control); for Plant response rating, Junglerice: 16 g ai/ha
Outline: as §1

[4] = test system: late watergrass (Echinochloa oryzicola); conditions: Flood, 21 days, scale 0 to 100 (0 no effect, 100 complete control); for Plant response rating, Watergrass, Late: 16 g ai/ha
Outline: as §1

[5] = test system: barnyardgrass (Echinochloa crus-galli); conditions: Flood, 21 days, scale 0 to 100 (0 no effect, 100 complete control); for Plant response rating, Barnyardgrass: 16 g ai/ha
Outline: as §1

[6] = test system: rice flatsedge (Cyperus iria); conditions: Flood, 21 days, scale 0 to 100 (0 no effect, 100 complete control); for Plant response rating, Flatsedge, Rice: 16 g ai/ha
Outline: as §1

[7] = test system: water seeded rice seedlings (Oryza sativa cv. ‘Japonica-M202’); conditions: Flood, 21 days, scale 0 to 100 (0 no effect, 100 complete control); for Plant response rating, Rice, Water Seeded: 16 g ai/ha
Outline: as §1

[8] = test system: ducksalad (Heteranthera limosa); conditions: Flood, 21 days, scale 0 to 100 (0 no effect, 100 complete control); for Plant response rating, Ducksalad: 16 g ai/ha
Outline: as §1

[9] = test system: transplanted rice seedlings (Oryza sativa cv. ‘Japonica-M202’); conditions: Flood, 21 days, scale 0 to 100 (0 no effect, 100 complete control); for Plant response rating, Rice, Transplanted: 16 g ai/ha
Outline: as §1

[10] = test system: bearded (brdd.) sprangletop (Leptochloa fusca ssp. fascicularis); conditions: Flood, 21 days, scale 0 to 100 (0 no effect, 100 complete control); for Plant response rating, Sprangletop, Brdd.: 16 g ai/ha
Outline: as §1

[11] = test system: early watergrass (Echinochloa oryzoides); conditions: Flood, 21 days, scale 0 to 100 (0 no effect, 100 complete control); for Plant response rating, Watergrass, Early: 16 g ai/ha
Outline: as §1

COC(=O)c1nc(-c2ccc(I)cc2)nc(N)c1Br [Compound 128]
Sedge, Umbrella plant response rating ([1]; 32 g ai/ha): 60
Sedge, Umbrella plant response rating ([1]; 64 g ai/ha): 70
Sedge, Umbrella plant response rating ([1]; 125 g ai/ha): 100
Sedge, Umbrella plant response rating ([1]; 250 g ai/ha): 100
Plant response rating, Sedge, Umbrella [1]: 0
Redstem plant response rating ([2]; 32 g ai/ha): 75
Redstem plant response rating ([2]; 64 g ai/ha): 80
Redstem plant response rating ([2]; 125 g ai/ha): 90
Redstem plant response rating ([2]; 250 g ai/ha): 90
Plant response rating, Redstem [2]: 0
Junglerice plant response rating ([3]; 32 g ai/ha): 0
Junglerice plant response rating ([3]; 64 g ai/ha): 0
Junglerice plant response rating ([3]; 125 g ai/ha): 0
Junglerice plant response rating ([3]; 250 g ai/ha): 10
Plant response rating, Junglerice [3]: 0
Watergrass, Late plant response rating ([4]; 32 g ai/ha): 0
Watergrass, Late plant response rating ([4]; 64 g ai/ha): 0
Watergrass, Late plant response rating ([4]; 125 g ai/ha): 0
Watergrass, Late plant response rating ([4]; 250 g ai/ha): 0
Plant response rating, Watergrass, Late [4]: 0
Barnyardgrass plant response rating ([5]; 32 g ai/ha): 0
Barnyardgrass plant response rating ([5]; 64 g ai/ha): 0
Barnyardgrass plant response rating ([5]; 125 g ai/ha): 0
Barnyardgrass plant response rating ([5]; 250 g ai/ha): 0
Plant response rating, Barnyardgrass [5]: 0
Flatsedge, Rice plant response rating ([6]; 32 g ai/ha): 0
Flatsedge, Rice plant response rating ([6]; 64 g ai/ha): 0
Flatsedge, Rice plant response rating ([6]; 125 g ai/ha): 60
Flatsedge, Rice plant response rating ([6]; 250 g ai/ha): 80
Plant response rating, Flatsedge, Rice [6]: 0
Rice, Water Seeded plant response rating ([7]; 32 g ai/ha): 0
Rice, Water Seeded plant response rating ([7]; 64 g ai/ha): 0
Rice, Water Seeded plant response rating ([7]; 125 g ai/ha): 0
Rice, Water Seeded plant response rating ([7]; 250 g ai/ha): 0
Plant response rating, Rice, Water Seeded [7]: 0
Ducksalad plant response rating ([8]; 32 g ai/ha): 100
Ducksalad plant response rating ([8]; 64 g ai/ha): 100
Ducksalad plant response rating ([8]; 125 g ai/ha): 100
Ducksalad plant response rating ([8]; 250 g ai/ha): 100
Plant response rating, Ducksalad [8]: 95
Rice, Transplanted plant response rating ([9]; 32 g ai/ha): 0
Rice, Transplanted plant response rating ([9]; 64 g ai/ha): 0
Rice, Transplanted plant response rating ([9]; 125 g ai/ha): 0
Rice, Transplanted plant response rating ([9]; 250 g ai/ha): 0
Plant response rating, Rice, Transplanted [9]: 0
Sprangletop, Brdd. plant response rating ([10]; 32 g ai/ha): 0
Sprangletop, Brdd. plant response rating ([10]; 64 g ai/ha): 0
Sprangletop, Brdd. plant response rating ([10]; 125 g ai/ha): 0
Sprangletop, Brdd. plant response rating ([10]; 250 g ai/ha): 80
Plant response rating, Sprangletop, Brdd. [10]: 0
Watergrass, Early plant response rating ([11]; 32 g ai/ha): 0
Watergrass, Early plant response rating ([11]; 64 g ai/ha): 0
Watergrass, Early plant response rating ([11]; 125 g ai/ha): 0
Watergrass, Early plant response rating ([11]; 250 g ai/ha): 0
Plant response rating, Watergrass, Early [11]: 0

CCOC(=O)c1nc(-c2ccc(Br)cc2)nc(N)c1Cl [Compound 94, ethyl 6-amino-2-(4-bromophenyl)-5-chloro-4-pyrimidinecarboxylate]
Sedge, Umbrella plant response rating ([1]; 32 g ai/ha): 100
Sedge, Umbrella plant response rating ([1]; 64 g ai/ha): 100
Sedge, Umbrella plant response rating ([1]; 125 g ai/ha): 100
Sedge, Umbrella plant response rating ([1]; 250 g ai/ha): 100
Plant response rating, Sedge, Umbrella [1]: 100
Redstem plant response rating ([2]; 32 g ai/ha): 65
Redstem plant response rating ([2]; 64 g ai/ha): 75
Redstem plant response rating ([2]; 125 g ai/ha): 100
Redstem plant response rating ([2]; 250 g ai/ha): 100
Plant response rating, Redstem [2]: 0
Junglerice plant response rating ([3]; 32 g ai/ha): 0
Junglerice plant response rating ([3]; 64 g ai/ha): 0
Junglerice plant response rating ([3]; 125 g ai/ha): 0
Junglerice plant response rating ([3]; 250 g ai/ha): 0
Plant response rating, Junglerice [3]: 0
Watergrass, Late plant response rating ([4]; 32 g ai/ha): 0
Watergrass, Late plant response rating ([4]; 64 g ai/ha): 0
Watergrass, Late plant response rating ([4]; 125 g ai/ha): 0
Watergrass, Late plant response rating ([4]; 250 g ai/ha): 0
Plant response rating, Watergrass, Late [4]: 0
Barnyardgrass plant response rating ([5]; 32 g ai/ha): 0
Barnyardgrass plant response rating ([5]; 64 g ai/ha): 0
Barnyardgrass plant response rating ([5]; 125 g ai/ha): 0
Barnyardgrass plant response rating ([5]; 250 g ai/ha): 0
Plant response rating, Barnyardgrass [5]: 0
Flatsedge, Rice plant response rating ([6]; 32 g ai/ha): 100
Flatsedge, Rice plant response rating ([6]; 64 g ai/ha): 100
Flatsedge, Rice plant response rating ([6]; 125 g ai/ha): 100
Flatsedge, Rice plant response rating ([6]; 250 g ai/ha): 100
Plant response rating, Flatsedge, Rice [6]: 100
Rice, Water Seeded plant response rating ([7]; 32 g ai/ha): 0
Rice, Water Seeded plant response rating ([7]; 125 g ai/ha): 10
Rice, Water Seeded plant response rating ([7]; 250 g ai/ha): 10
Plant response rating, Rice, Water Seeded [7]: 0
Ducksalad plant response rating ([8]; 32 g ai/ha): 100
Ducksalad plant response rating ([8]; 64 g ai/ha): 100
Ducksalad plant response rating ([8]; 125 g ai/ha): 100
Ducksalad plant response rating ([8]; 250 g ai/ha): 100
Plant response rating, Ducksalad [8]: 100
Rice, Transplanted plant response rating ([9]; 32 g ai/ha): 0
Rice, Transplanted plant response rating ([9]; 64 g ai/ha): 10
Rice, Transplanted plant response rating ([9]; 125 g ai/ha): 10
Rice, Transplanted plant response rating ([9]; 250 g ai/ha): 20
Plant response rating, Rice, Transplanted [9]: 0
Sprangletop, Brdd. plant response rating ([10]; 32 g ai/ha): 0
Sprangletop, Brdd. plant response rating ([10]; 64 g ai/ha): 0
Sprangletop, Brdd. plant response rating ([10]; 125 g ai/ha): 20
Sprangletop, Brdd. plant response rating ([10]; 250 g ai/ha): 40
Plant response rating, Sprangletop, Brdd. [10]: 0
Watergrass, Early plant response rating ([11]; 32 g ai/ha): 0
Watergrass, Early plant response rating ([11]; 64 g ai/ha): 0
Watergrass, Early plant response rating ([11]; 125 g ai/ha): 0
Watergrass, Early plant response rating ([11]; 250 g ai/ha): 0
Plant response rating, Watergrass, Early [11]: 0
